We go through two compounds from article PMC5974751, “NKp44-Derived Peptide Binds Proliferating Cell Nuclear Antigen and Mediates Tumor Cell Death” (Frontiers in Immunology, 2018).

Peptide text beside a SMILES is read from it.

Data set [1] relates to B16 melanoma tumor in C57BL/6 mice. Kind of data set: In vivo B16 tumor growth. Also noted: species or system mouse. As to conditions: R11-NLS-pep8 5 mg/kg IP, 5-FU 30 mg/kg IP, treatment stopped day 22. As for the experimental part:
Seven-week-old male C57BL/6 mice with an average body weight of 23 g were used in the other experiment. B16 cells suspended at a density of 0.5 × 10^6 cells/100 μl, in serum-free DMEM containing 40% Geltrex, were injected subcutaneously in the left dorsal flank, and allowed to develop tumors. After 6 days, mice were randomly divided into three groups, one group was treated with R11-NLS-pep8, at a dose of 5 mg/kg, intraperitoneally (IP), other group with 5-FU, at a dose of 30 mg/kg, (IP) and mice treated with a 1.44% DMSO/150 mM NaCl solution, (IP) served as the vehicle control. Treatment was done three times a week at least for 4 weeks. Each week, tumors size was evaluated by measuring their length (L) and width (W), using a Caliper device and tumor volume (V) was calculated according to the equation: V = LW^2/2. After 3 weeks of treatment, mice were euthanized, and tumors volume and weight were measured.
Figure 5 Effect of R11-NLS-pep8 on 4T1 and B16 in vivo tumor models. (A) 4T1 cells or (C) B16 cells were injected into the nipple pad or flank of young BALB/C females or C57BL/6 males, respectively (day 0). At day 5, mice were divided to subgroups according to mice weight. […] Tumor volume (mm^3) was measured at days as indicated on graphs mean tumor volume (mm^3), (B) 4T1 and (D) B16 were normalized to vehicle/day to show the effect of treatment on tumor volume per day. […]

Data set [2] relates to 4T1 breast cancer tumor in BALB/C mice. Kind of data set: In vivo 4T1 tumor growth. Also noted: species or system mouse. The note with it: for tumor growth suppression vs vehicle, significance on days 19 and 23 / tumor growth suppression vs vehicle, significance on day 28: R11-NLS-pep8 5 mg/kg IV, 5-FU 30 mg/kg; for tumor growth suppression vs vehicle, significance on days 19 and 23: every 2 days, treatment stopped day 22, unpaired t-test, one-tail; for tumor growth suppression vs vehicle, significance on day 28: treatment stopped day 22. As for the experimental part: Seven-week-old female BALB/C mice with an average body weight of 20 g were used in this experiment. 4T1 cells suspended at a density of 2 × 10^5 cells/50 μl, in serum-free DMEM containing 40% Geltrex, were injected into the left mammary fat pad, and allowed to develop tumors. After 5 days, mice were randomly divided into three groups, one group was treated with R11-NLS-pep8, at a dose of 5 mg/kg, intravenously (IV), other group with 5-FU, at a dose of 30 mg/kg, (IV) and mice treated with a 1.44% DMSO/150 mM NaCl solution, (IV) served as the vehicle control. Treatment was continued following every 2 days at least for 4 weeks. Each week, tumor size was evaluated by measuring their length (L) and width (W), using a Caliper device and tumor volume (V) was calculated according to the equation: V = LW^2/2. After 4 weeks of treatment, mice were euthanized, and tumors volume and weight were measured.
Figure 5 Effect of R11-NLS-pep8 on 4T1 and B16 in vivo tumor models. (A) 4T1 cells or (C) B16 cells were injected into the nipple pad or flank of young BALB/C females or C57BL/6 males, respectively (day 0). At day 5, mice were divided to subgroups according to mice weight. Treatment was started at day 5 (4T1) or day 6 (B16) and end at day 22. Treatment was administrated every 2 days three times per week; 5-FU was administered intraperitoneally (IP) while R11-NLS-pep8 was administrated intravenously (4T1) or IP (B16). Tumor volume (mm^3) was measured at days as indicated on graphs mean tumor volume (mm^3), (B) 4T1 and (D) B16 were normalized to vehicle/day to show the effect of treatment on tumor volume per day. Statistical analysis was performed on original tumor volume data. Unpaired t-test; one-tail, *p < 0.05.

The subject of data set [3] is HepG2 hepatocellular carcinoma cells. Description: PrestoBlue cell viability, HepG2. As to conditions: 24 h, sigmoidal dose–response. The data set is classed as cell-based, human. The method, then:
(§1) Target cells (2.5 × 10^4 cells/well of a 48-well plate, Corning) were seeded and incubated in 37°C, 5% CO2 for 24 h in 0.5 ml of fresh complete DMEM (10% FBS) culture medium. According to molecular weight peptides were diluted from 8 to 2 µM with 5% FBS containing DMEM culture medium just before the incubation with the target cells. Medium was removed from each well, and 250 µl of diluted peptides was added and incubated for another 24 h at 37°C, 5% CO2. PrestoBlue (A13261, Invitrogen™) solution was prepared by diluting the dye 10-fold with complete DMEM. Medium was discarded from each well, and 250 µl of PrestoBlue solution was added to each well, shake gently and incubated at 37°C for another 1 h. Emission at 560 nm was measured in Premium Quad4 Monochromators plate reader (Tecan). Normalization was done relative to the appropriate control (DMEM or DMSO) to calculate the percentage of viable cells in each group. Selenite (25 µM) was used as a positive control ([52], [53]).

Another data set relates to B16 melanoma cells. Kind of data set: PrestoBlue cell viability, B16. The data set is classed as cell-based, murine. As to conditions: 24 h, sigmoidal dose–response. As for the experimental part: as §1
A further data set concerns B16 cells. Description: Flow cytometry based cell death assay (PI), B16. More on the design: species or system murine. As to conditions: 0–8 µM, 24 h. The method, then:
(§2) Peptides were diluted before the incubation with the target cells with free DMEM culture medium to 0–16 µM according to peptide molecular weight. For adding the peptides, 0.5 ml was removed from each well, and 0.5 ml of diluted peptides was added to a final volume of 1 ml, 5% FCS, duplicates. Peptides were incubated with target cells for 24 h, and then the medium was collected, adherent cells were removed with trypsin–EDTA (0.5 ml, 3 min, BI: 03-052-1B), 1 ml of complete medium was added to each well, and the medium was collected (final volume 2.5 ml, on ice). For the cell death assay, samples were then centrifuged (1,300 rpm, 4°C, 5 min), the medium was removed, fresh 1 ml 10% FCS was added, and then 1 µl of 1 mg/ml PI was added to each sample and incubated (15 min, on ice) with the target cells. Before analyzing the samples, samples were centrifuged (1,300 rpm, 4°C, 5 min), the medium was removed, and fresh 0.2 ml FCAS buffer (PBS 1×, 20% FCS, 0.5% NaN3) was added. Samples were then read and analyzed using BD FACSCanto™ II and FlowJo®. APIM peptide and camptothecin (CPT) were used as positive controls ([38], [54]–[56]). Specific cell death was calculated as following: Y = 100*((sample cell death − basal cell death)/(100 − basal cell death)). Basal cell death = % of PI positive cells following incubation in complete culture media.

Data set [4] can be described thus: Initial toxicity studies in mice. The data set is classed as in vivo, mouse. As to conditions: 5 mg/kg every 2 days for 3 weeks; data not shown. As for the experimental part: Initial toxicity studies have been performed with the 5 mg/kg dose injected into mice every 2 days for 3 weeks, and analysis of mouse weight and well-being was meticulously observed during this time. Also, livers, spleens, and lungs were harvested and weight.

Another data set has as its system 4T1 cells. Kind of data set: Flow cytometry based cell death assay (PI), 4T1. More on the design: species or system murine. The note with it: 4T1, PI flow cytometry, 0–8 µM, 24 h. As for the experimental part:
as §2

The next data set deals with MDA-MB-231 cells. Kind of data set: Flow cytometry based cell death assay (PI), MDA-MB-231. Also noted: species or system human. The note with it: MDA-MB-231, PI flow cytometry, 0–8 µM, 24 h. As for the experimental part:
as §2

The test system of data set [5] is MDA-MB-231 breast adenocarcinoma cells. Description: PrestoBlue cell viability, MDA-MB-231. The data set is classed as cell-based, human. As to conditions: MDA-MB-231, PrestoBlue, 24 h; sigmoidal dose–response. The method, then: as §1
Data set [6] has as its system PANC-1 pancreas ductal adenocarcinoma cells. Kind of data set: PrestoBlue cell viability, PANC-1. The format is cell-based, human. The note with it: PANC-1, PrestoBlue, 24 h; sigmoidal dose–response. The method, then:
as §1

Data set [7] deals with pep8–PCNA interaction (recombinant PCNA). Description: ELISA-based inhibition of biotin-pep8 binding to PCNA. Also noted: species or system human. The note with it: inhibitor 25 µg/ml 1 h, then biotin-pep8 5 µg/ml 1 h, room temperature, O.D. 650 nm. The method, then: To determine the ability of APIM-based peptide to suppress NKp44-pep8 interaction with PCNA, ELISA plates were coated with recombinant PCNA followed by PBS–skim milk added as described earlier. Plates were then incubated with 25 µg/ml of R11-NLS-pep8 (positive control), R11-NLS-pep8short (negative control), and APIM for 1 h at room temperature followed by addition of biotin-pep8 (5 µg/ml) without washing for 1 h at room temperature. Biotin-pep8 binding to PCNA was detected using streptavidin conjugated HRP (1 h at 1:500 dilution 100 μl/well). Following washing, TMB (100 μl/well DAKO, S1599) was added. O.D. was read at 650 nm (Thermo Electron Corporation Multiskan Spectrum).

Regarding `O=c1[nH]cc(F)c(=O)[nH]1` [5-FU, reference compound], the “tumor growth suppression, day 23” value in data set [1] is recorded as “significantly suppressed B16 growth”. In [2], the “tumor growth suppression vs vehicle, significance on days 19 and 23” value was “clear yet non-significant on days 19 and 23”; the “tumor growth suppression vs vehicle, significance on day 28” value is “significant on day 28”.
As for `CC[C@H](C)[C@H](NC(=O)[C@H](CCCNC(=N)N)NC(=O)[C@H](CCCNC(=N)N)NC(=O)[C@H](CCCNC(=N)N)NC(=O)[C@H](CCCNC(=N)N)NC(=O)[C@H](CCCNC(=N)N)NC(=O)[C@H](CCCNC(=N)N)NC(=O)[C@H](CCCNC(=N)N)NC(=O)[C@H](CCCNC(=N)N)NC(=O)[C@H](CCCNC(=N)N)NC(=O)[C@H](CCCNC(=N)N)NC(=O)[C@H](CCCNC(=N)N)NC(C)=O)C(=O)N[C@@H](CCCCN)C(=O)N[C@@H](CCCCN)C(=O)N[C@@H](CCCCN)C(=O)N[C@@H](CCCNC(=N)N)C(=O)N[C@@H](CCCCN)C(=O)N[C@@H](Cc1c[nH]c2ccccc12)C(=O)N[C@@H](CCC(=O)O)C(=O)N[C@@H](C)C(=O)N[C@@H](CO)C(=O)N[C@@H](C)C(=O)N[C@@H](CC(C)C)C(=O)N[C@H](C(=O)N[C@@H](CS)C(=O)N[C@H](C(=O)N[C@@H](CCCNC(=N)N)C(=O)N[C@@H](CC(C)C)C(=O)N[C@H](C(=O)N[C@H](C(=O)N[C@@H](CO)C(=O)N[C@@H](CO)C(=O)N[C@@H](CCCCN)C(=O)N1CCC[C@H]1C(=O)N[C@@H](CCCNC(=N)N)C(=O)N[C@H](C(=O)N[C@H](C(=O)N[C@H](C)C(=O)O)C(C)C)[C@@H](C)O)[C@@H](C)O)C(C)C)[C@@H](C)CC)C(C)C` [R11-NLS-pep8] (HELM PEPTIDE1{[ac].R.R.R.R.R.R.R.R.R.R.R.I.K.K.K.R.K.W.E.A.S.A.L.V.C.I.R.L.V.T.S.S.K.P.R.T.V.[dA]}$$$$V2.0; C-terminus assumed), the “tumor growth suppression, day 23” value in data set [1] was “significantly suppressed B16 growth”. For the same compound, the “ED50, cell viability” value in data set [3] was found to be 5.9 µM; with B16 melanoma cells it was 7.1 µM; in data set [5], 5.6 µM; in data set [6], 7.8 µM. The figures for the “ED50, cell death” value in the data set with B16 cells, with 4T1 cells and in the data set on MDA-MB-231 cells were 3.94 µM, 3.78 µM and 4.07 µM, respectively. Besides, in data set [4], the “mice weights and well-being” value is on record as “No significant changes were observed”. The “organ weights (livers, spleens, lungs) at end of experiment” value in data set [4] is “No significant changes were observed”. In data set [2] (R11-NLS-pep8 5 mg/kg IV vs 5-FU IP 30 mg/kg), the “growth suppression relative to 5-FU” value is reported as “comparable to the effect of 5-FU”. Moreover, in data set [2], the “tumor growth suppression vs vehicle, significance on days 19 and 23” value was “statistically significant on days 19 and 23”. Moreover, in [2], the “tumor growth suppression vs vehicle, significance on day 28” value is reported as “statistically non-significant difference”. In addition, in data set [7], the “inhibition of pep8 binding to PCNA” value was found to be 35%.
